Results taken from patent US11752104B2, “Oral composition and methods for manufacturing the same and treatment” (MEDICAL AND PHARMACEUTICAL INDUSTRY TECHNOLOGY AND …, priority 2019, dated 2023).

Assay: Particle size of milled tacrolimus particles by laser particle size analyzer (Malvern 3000)
Assay type: physicochemical
Settings: for D90 / D10 / D50 / D [3, 3] / D [4, 3]: Malvern 3000
Procedure: The milling process is conducted under the water bath at the temperature of about 4 to 18° C. for decreasing high-released energy in case of the deactivation of the milled particles.
Table 1 illustrates the statistically analyzed diameter size of the milled particles after different milling time, detected by laser particle size analyzer, Malven 3000. After milling for 90 mins, the D90 of the particles is decreased to a level of less than 400 nm. Furthermore, it was observed that preferred D90 of milled particles would be limited in the range of 100 nm to 800 nm. If D90 is less than 100 nm, the issue of particle aggregation cannot be prevented. If D90 is greater than 800 nm, the favorable effect is not significant.

With `C=CC[C@@H]1/C=C(\C)C[C@H](C)C[C@H](OC)[C@H]2O[C@@](O)(C(=O)C(=O)N3CCCC[C@H]3C(=O)O[C@H](/C(C)=C/[C@@H]3CC[C@@H](O)[C@H](OC)C3)[C@H](C)[C@@H](O)CC1=O)[C@H](C)C[C@@H]2OC` [tacrolimus] the “D90 of the particles” value (after milling for 90 mins) was “less than 400 nm”, the D90 (milling time 0 min (unmilled)) was 17.000 μm and the D10 (milling time 0 min) was 2.300 μm. For the same molecule, the D50 (milling time 0 min) was 6.600 μm, the “D [3, 3]” value (milling time 0 min) was 4.860 μm and the “D [4, 3]” value (milling time 0 min) was 8.880 μm. It also gave a D10 (milling time 15 min) of 0.157 μm, a D50 (milling time 15 min) of 0.338 μm and a D90 (milling time 15 min) of 0.967 μm. The “D [3, 3]” value (milling time 15 min) was 0.294 μm, the “D [4, 3]” value (milling time 15 min) was 0.578 μm and the D10 (milling time 30 min) was 0.119 μm. For the same molecule, the D50 (milling time 30 min) was 0.255 μm, the D90 (milling time 30 min) was 0.572 μm and the “D [3, 3]” value (milling time 30 min) was 0.219 μm. The “D [4, 3]” value (milling time 30 min) was 0.328 μm, the D10 (milling time 45 min) was 0.123 μm and the D50 (milling time 45 min) was 0.270 μm. The D90 (milling time 45 min) was 0.608 μm, the “D [3, 3]” value (milling time 45 min) was 0.230 μm and the “D [4, 3]” value (milling time 45 min) was 1.360 μm. The D10 (milling time 60 min) was 0.094 μm, the D50 (milling time 60 min) was 0.198 μm and the D90 (milling time 60 min) was 0.426 μm. For the same molecule, the “D [3, 3]” value (milling time 60 min) was 0.170 μm, the “D [4, 3]” value (milling time 60 min) was 0.232 μm and the D10 (milling time 75 min) was 0.088 μm. For the same molecule, the D50 (milling time 75 min) was 0.183 μm, the D90 (milling time 75 min) was 0.390 μm and the “D [3, 3]” value (milling time 75 min) was 0.158 μm. For the same molecule, the “D [4, 3]” value (milling time 75 min) was 0.216 μm, the D10 (milling time 90 min) was 0.083 μm and the D50 (milling time 90 min) was 0.174 μm. For the same molecule, the D90 (milling time 90 min) was 0.364 μm, the “D [3, 3]” value (milling time 90 min) was 0.149 μm and the “D [4, 3]” value (milling time 90 min) was 0.202 μm.
